From patent US9497963B2, “Methods and compositions for control of gypsy moth, Lymantria dispar” (Simon Fraser University, priority 2008, dated 2016)

How the values were obtained:
[1] = test system: male gypsy moth antenna response to odorants other than (+)-1; test: Long-term inhibition of responses to other pheromone and host plant odorants, EAG (Example 8, first objective); set-up: species or system Lymantria dispar; details: antagonist 100 μg
Protocol: To determine whether the long-term inhibitory effects of 3c{2,3} and DEET are specific to (+)-1 or also apply to other odorants, compound 3c{2,3} and DEET were tested further with other odorants: (−)-1, racemic 1, dispar alkene, methyl eugenol and 1-hexanol.
These included (−)-1, racemic 1, dispar alkene (the alkene corresponding to the carbon framework of 1), methyl eugenol (a characteristic oak wood odorant) and 1-hexanol (a green leaf volatile, shown previously to be detected by gypsy moth antennae). For the pure odorant puffs, (−)-1 and racemic 1 were administered at 100 ng/cartridge, the alkene, methyl eugenol was administered at 1 μg/cartridge and 1-hexanol was administered at 100 μg/cartridge. The antagonists were both administered at 100 μg/cartridge, mixed with the appropriate dose of the odorant. The puff order was: i) air, ii) pure odorant, iii) odorant+antagonist, iv) pure odorant. All puffs were corrected for the air response as in Eq. 1. STI values were obtained from the depolarization […]. LTI values were obtained by comparing the depolarization of puff iv relative to that of puff ii.

[2] = test system: male gypsy moth antennae response to pheromone (+)-1 with plant odors; test: Effect on mixed pheromone/plant odorant stimulus, EAG (Example 8, second objective); set-up: species or system Lymantria dispar
Protocol: A second objective for this experiment was to determine whether the oak volatiles, methyl eugenol and 1-hexanol, can enhance the antennal response to (+)-1 and whether the mixed pheromone/plant odorant stimulus can be inhibited by compound 3c{2,3} or DEET. The puff order was: i) air, ii) pure (+)-1 (100 ng), iii) (+)-1 (100 ng) and plant odorant (1 μg for methyl eugenol and 100 μg for 1-hexanol), iv) (+)-1 and plant odorant as in iii+antagonist (100 μg), v) same as in iii. Depolarizations were corrected for the air response as in Eq. 1 and the short-term effects were calculated for puff iii relative to puff ii, and for puff iv relative to puff ii. Long-term effects were calculated for puff v relative to puff iii (for LTI of the mixed pheromone/plant odorant plume) and for puff v relative to puff ii (to determine whether long-term effects of the plant odorant and of the antagonist cancel).

[3] = odorant racemic disparlure 100 ng
[4] = plant synergist 1-hexanol 100 μg
[5] = plant synergist methyl eugenol 1 μg

CCCOc1ccc(OCC)cc1 [3c{2,3}, 1-ethoxy-4-propoxy benzene]
long-term activity (%) ([1]; odorant 1-hexanol 100 μg): 29 ± 18% | short-term activity (%) ([1]; odorant 1-hexanol 100 μg): −34 ± 28% | long-term activity (%) ([1]; odorant (−)-disparlure 100 ng): 43 ± 12% | long-term activity (%) ([1]; odorant dispar alkene 1 μg): 39 ± 12% | short-term activity (%) ([1]; odorant dispar alkene 1 μg): −244 ± 15% | long-term activity (%) ([1]; odorant methyl eugenol 1 μg): 46 ± 24% | long-term activity (%) [1, 3]: 69 ± 5% | short-term activity (%) [1, 3]: −154 ± 45% | short-term effect with plant synergist + antagonist ([2]; (+)-1 100 ng + 1-hexanol 100 μg + antagonist 100 μg): −99 ± 60 (5) | short-term effect with plant synergist + antagonist ([2]; (+)-1 100 ng + methyl eugenol 1 μg + antagonist 100 μg): −125 ± 95 (4) | long-term effect on (+)-1 response [2, 4]: 20 ± 18 (5) | long-term effect on the mixed (+)-1/plant odor plumes [2, 4]: 5 ± 24 (5) | long-term effect on (+)-1 response [2, 5]: 12 ± 33 (4) | long-term effect on the mixed (+)-1/plant odor plumes [2, 5]: 11 ± 47 (4)
